Laboratory results taken from paper PMC6095626, “Screening of the Pathogen Box for inhibitors with dual efficacy against Giardia lamblia and Cryptosporidium parvum” (PLoS Neglected Tropical Diseases, 2018).

Tests used:
[1] = system: G. lamblia trophozoites (luciferase expressing, WBC6); experiment: microbe, parasite or virus in culture; type: cell-based, Giardia lamblia; settings: initial Pathogen Box screen, single concentration 16 µM, inhibition compared to DMSO wells
Description: Trophozoites were harvested by chilling cultures on ice for 30 minutes and plated by adding 150 μL per well at a concentration of 250,000 cells/mL. Metronidazole (Sigma, St. Louis, MO) was used as a control and was serially diluted 1:2 from 40 μM to 0.04 μM and 150 μL was added to the 150 μL of the G. lamblia trophozoites. Plates were covered in plastic low-evaporation lids, sealed in individual anaerobic BD GasPak Bio-Bags (Becton Dickinson, San Jose, CA) and incubated at 37 °C for 24 hours. […] A duplicate plate was concurrently set up and assayed using a MOXI Z Mini Automated Cell Counter Kit (Orflo, Ketchum, ID). Results obtained from the bioluminescence assay and the MOXI counter data were compared to evaluate their correlation to each another. Albendazole (Sigma, St. Louis, MO), an alternative giardiasis therapeutic, was assayed in concentrations from 4 μM to 0.004 μM with only the luciferase expressing G. lamblia cells. […]

[2] = system: C. parvum (UGA1 Nluc expressing strain in HCT-8 cells); experiment: microbe, parasite or virus in culture; type: cell-based, Cryptosporidium parvum; settings: for Crypto (10 uM) Mean % inhibition: initial Pathogen Box screen, single concentration 10 µM, inhibition compared to DMSO wells
Description: Growth inhibition and EC50 determination assays were performed using UGA1 Nluc expressing C. parvum strain in HCT-8 cells (ATCC^©, Manassas, VA) as previously described. HCT-8 cells were inoculated onto 96-well plates and allowed to grow for 48 hours to 90–100% confluence and then treated with single concentration (10 μM) or serially diluted compounds prior to oocyst infection. C. parvum oocysts were incubated for 10 minutes in 10% bleach at room temperature and then washed with DPBS. […] The cell monolayers were lysed for 1 hour before adding Nano-Glo® luciferase reagent (Promega, Madison, WI), and measuring relative luminescence units (RLU) in an EnVision Plate Reader (Perkin Elmer, Waltham, MA). Several parameters, including reproducibility and reliability, were previously evaluated to optimize this assay for low and high-throughput (HTP) screening of small molecule compounds against C. parvum. EC50 values were calculated using Prism 7 software (GraphPad Software, San Diego, CA).
C. parvum screening against the Pathogen Box compounds was performed as previously described starting at a concentration of 10 μM [23].

## CC(=O)NCC1CN(c2ccc(-c3ccc(CO)cc3)c(F)c2)C(=O)O1 (stereo not drawn) [MMV688508]
[1]
  Giardia (16 uM) Mean % inhibition: X* (Mean or standard deviation are negative but not significantly different from the control to be a growth promoter)
[2]
  Crypto (10 uM) Mean % inhibition: X* (Mean or standard deviation are negative but not significantly different from the control to be a growth promoter)

## Cc1cc(C(=O)Nc2cnn(Cc3ccc(Cl)cc3Cl)c2)no1 [MMV009054]
[1]
  Giardia (16 uM) Mean % inhibition: X* (Mean or standard deviation are negative but not significantly different from the control to be a growth promoter)
[2]
  Crypto (10 uM) Mean % inhibition: 59%

## NS(=O)(=O)c1cncc(-c2ccc3nccc(-c4cn[nH]c4)c3n2)c1 [MMV024101]
[1]
  Giardia (16 uM) Mean % inhibition: 14%
[2]
  Crypto (10 uM) Mean % inhibition: X* (Mean or standard deviation are negative but not significantly different from the control to be a growth promoter)

## CC(C)C(NC(=O)Cc1cccc2ccccc12)C(=O)Nc1cccc(C#N)c1 (stereo not drawn) [MMV020591]
[1]
  Giardia (16 uM) Mean % inhibition: 16%
[2]
  Crypto (10 uM) Mean % inhibition: 55%

## CCCn1nnc(NC(=O)COc2ccc(C3CCCCC3)cc2)n1 [MMV676597]
[1]
  Giardia (16 uM) Mean % inhibition: 31%
[2]
  Crypto (10 uM) Mean % inhibition: 60%

## O=C(NCCc1ccccc1)c1cc(-c2cccnc2)cnc1NCC1CC1 [MMV026490]
[1]
  Giardia (16 uM) Mean % inhibition: 12%
[2]
  Crypto (10 uM) Mean % inhibition: X* (Mean or standard deviation are negative but not significantly different from the control to be a growth promoter)

## COc1cc(C2=NCCN2)ccc1-n1cc(-c2cccc(C3=NCCN3)c2)nn1 [MMV688474]
[1]
  Giardia (16 uM) Mean % inhibition: 18%
[2]
  Crypto (10 uM) Mean % inhibition: X* (Mean or standard deviation are negative but not significantly different from the control to be a growth promoter)

## O=C(Nc1ccnc(-c2cccnc2)n1)c1cc(C(F)(F)F)cc(C(F)(F)F)c1 [MMV019838]
[1]
  Giardia (16 uM) Mean % inhibition: 16%
[2]
  Crypto (10 uM) Mean % inhibition: 71%

## CC(C)n1nc(-c2cc3c(Cl)cccc3[nH]2)c2c(N)ncnc21 [MMV688417]
[1]
  Giardia (16 uM) Mean % inhibition: 77%
[2]
  Crypto (10 uM) Mean % inhibition: 85%

## Clc1ccc(CN2CCN(C3=NCCN3)CC2)cc1Cl [MMV689060]
[1]
  Giardia (16 uM) Mean % inhibition: X* (Mean or standard deviation are negative but not significantly different from the control to be a growth promoter)
[2]
  Crypto (10 uM) Mean % inhibition: 50%

## NC(=O)c1cc(Br)ccc1OCCOc1ccccc1 [MMV687243]
[1]
  Giardia (16 uM) Mean % inhibition: 66%
[2]
  Crypto (10 uM) Mean % inhibition: 77%

## CCOC(=O)c1noc(N)c1-c1ccccc1 [MMV1236379]
[1]
  Giardia (16 uM) Mean % inhibition: X* (Mean or standard deviation are negative but not significantly different from the control to be a growth promoter)
[2]
  Crypto (10 uM) Mean % inhibition: X* (Mean or standard deviation are negative but not significantly different from the control to be a growth promoter)

## Clc1ccc(Cl)c(CO[C@H]2CCCC[C@@H]2n2ccnc2)c1 [MMV676048]
[1]
  Giardia (16 uM) Mean % inhibition: 37%
[2]
  Crypto (10 uM) Mean % inhibition: 49%

## NCCC(O)C(=O)N[C@@H]1C[C@H](N)[C@@H](OC2O[C@H](CN)[C@@H](O)[C@H](O)[C@H]2O)[C@H](O)C1OC1O[C@H](CO)[C@@H](O)[C@H](N)[C@H]1O (stereo partly drawn) [MMV687796]
[1]
  Giardia (16 uM) Mean % inhibition: X* (Mean or standard deviation are negative but not significantly different from the control to be a growth promoter)
[2]
  Crypto (10 uM) Mean % inhibition: 82%

## Cc1ccc(S(=O)(=O)Nc2ccc(CN3CCN(C(=O)c4cccc(C#N)c4)CC3)cc2)cc1 [MMV689028]
[1]
  Giardia (16 uM) Mean % inhibition: 56%
[2]
  Crypto (10 uM) Mean % inhibition: 58%

## CS(=O)(=O)N1CCC(CCn2nc(Cc3cccc4ccccc34)c3c(N)ncnc32)CC1 [MMV688470]
[1]
  Giardia (16 uM) Mean % inhibition: 23%
[2]
  Crypto (10 uM) Mean % inhibition: 80%

## Nc1nc2cc(-c3cncc(Oc4ccc(F)cc4)c3)ccc2[nH]1 [MMV687248]
[1]
  Giardia (16 uM) Mean % inhibition: 22%
[2]
  Crypto (10 uM) Mean % inhibition: 72%

## Cc1ccc2c(c1C)NC(=O)C21NN=C(c2ccccc2)S1 (stereo not drawn) [MMV019189]
[1]
  Giardia (16 uM) Mean % inhibition: X* (Mean or standard deviation are negative but not significantly different from the control to be a growth promoter)
[2]; 10 μM, 48 hours
  C. parvum cell growth inhibition in the initial screen: ≥ 95%
[2]; Nluc C. parvum in HCT-8 cells, 48 hours, read-out: C. parvum EC50
  EC50: 2.52 µM
[2]
  Crypto (10 uM) Mean % inhibition: 95%

## Nc1nccc2ccc(-c3ccc4nccn4c3)cc12 [MMV023233]
[1]
  Giardia (16 uM) Mean % inhibition: 85%
[2]
  Crypto (10 uM) Mean % inhibition: X* (Mean or standard deviation are negative but not significantly different from the control to be a growth promoter)

## O=C(Nc1nc(-c2ccccn2)cs1)c1cncn1-c1ccccc1 [MMV676512]
[1]
  Giardia (16 uM) Mean % inhibition: 10%
[2]
  Crypto (10 uM) Mean % inhibition: 93%

## O=C(C(Cc1c[nH]c2ccccc12)NS(=O)(=O)c1ccc(Cl)cc1)N1CCCCC1 (stereo not drawn) [MMV085210]
[1]
  Giardia (16 uM) Mean % inhibition: X* (Mean or standard deviation are negative but not significantly different from the control to be a growth promoter)
[2]
  Crypto (10 uM) Mean % inhibition: X* (Mean or standard deviation are negative but not significantly different from the control to be a growth promoter)

## CS(=O)(=O)c1cccc(-c2cnc3[nH]cc(-c4ccc(CCC(=O)O)cc4)c3c2)c1 [MMV026020]
[1]
  Giardia (16 uM) Mean % inhibition: 19%
[2]
  Crypto (10 uM) Mean % inhibition: X* (Mean or standard deviation are negative but not significantly different from the control to be a growth promoter)

## COc1ccc(S(=O)(=O)Nc2ccc(CN3CCN(C(=O)c4cccc(C#N)c4)CC3)cc2)cc1 [MMV689029]
[1]
  Giardia (16 uM) Mean % inhibition: 54%
[2]
  Crypto (10 uM) Mean % inhibition: 54%

## COc1cccc(NC(=O)c2c(NC(=O)c3cccnc3)sc3c2CCC3)c1 [MMV228911]
[1]
  Giardia (16 uM) Mean % inhibition: 37%
[2]
  Crypto (10 uM) Mean % inhibition: 39%

## CNC(=O)C1Cc2ccccc2N1C(=O)Cc1ccc(F)cc1 (stereo not drawn) [MMV188296]
[1]
  Giardia (16 uM) Mean % inhibition: 33%
[2]
  Crypto (10 uM) Mean % inhibition: 54%

## CC(C)(C)n1nc(-c2ccccc2)c2c(N)ncnc21 [MMV688548]
[1]
  Giardia (16 uM) Mean % inhibition: 63%
[2]
  Crypto (10 uM) Mean % inhibition: 94%

## CC1CCCCN1C(=O)NCCc1coc(-c2ccc(F)cc2)n1 (stereo not drawn) [MMV688797]
[1]
  Giardia (16 uM) Mean % inhibition: 23%
[2]
  Crypto (10 uM) Mean % inhibition: X* (Mean or standard deviation are negative but not significantly different from the control to be a growth promoter)

## O=C1Nc2ccc(Br)cc2C12NCCc1c2[nH]c2ccccc12 (stereo not drawn) [MMV006239]
[1]
  Giardia (16 uM) Mean % inhibition: X* (Mean or standard deviation are negative but not significantly different from the control to be a growth promoter)
[2]
  Crypto (10 uM) Mean % inhibition: 53%

## CC1COC(Cn2cncn2)(c2ccc(Oc3ccc(Cl)cc3)cc2Cl)O1 (stereo not drawn) [MMV688943]
[1]
  Giardia (16 uM) Mean % inhibition: 81%
[2]
  Crypto (10 uM) Mean % inhibition: 46%

## CC(C)(C(=O)Nc1ccc(F)cc1)n1cc(-c2ccccc2F)cn1 [MMV687239]
[1]
  Giardia (16 uM) Mean % inhibition: 39%
[2]
  Crypto (10 uM) Mean % inhibition: 59%

## Cc1nc(-c2ccccn2)nc(N2CCC(Cc3ccccc3)C2)c1Cl (stereo not drawn) [MMV659004]
[1]
  Giardia (16 uM) Mean % inhibition: 13%
[2]
  Crypto (10 uM) Mean % inhibition: 66%

## Cc1ccc(S(=O)(=O)N2CCN(C(=O)c3cc(-c4ccccc4)n[nH]3)CC2)cc1 [MMV019742]
[1]
  Giardia (16 uM) Mean % inhibition: X* (Mean or standard deviation are negative but not significantly different from the control to be a growth promoter)
[2]
  Crypto (10 uM) Mean % inhibition: X* (Mean or standard deviation are negative but not significantly different from the control to be a growth promoter)

## COc1ccc(OC(C)C(=O)Nc2ccc(Cl)cc2C)cc1 (stereo not drawn) [MMV202458]
[1]
  Giardia (16 uM) Mean % inhibition: 11%
[2]
  Crypto (10 uM) Mean % inhibition: X* (Mean or standard deviation are negative but not significantly different from the control to be a growth promoter)

## CC(C)(C)c1ccc(N[C@@H]2CCCC[C@H]2NC(=O)c2ccco2)cc1 [MMV675969]
[1]
  Giardia (16 uM) Mean % inhibition: 32%
[2]
  Crypto (10 uM) Mean % inhibition: X* (Mean or standard deviation are negative but not significantly different from the control to be a growth promoter)

## COc1cc(NC(=O)Cc2nn(C)c(=O)c3ccccc23)ccc1Cl [MMV676053]
[1]
  Giardia (16 uM) Mean % inhibition: X* (Mean or standard deviation are negative but not significantly different from the control to be a growth promoter)
[2]
  Crypto (10 uM) Mean % inhibition: 84%

## FC(F)(F)c1nnc2ccc(Cl)nn12 [MMV069458]
[1]
  Giardia (16 uM) Mean % inhibition: X* (Mean or standard deviation are negative but not significantly different from the control to be a growth promoter)
[2]
  Crypto (10 uM) Mean % inhibition: 65%

## CC1CCCN(C(=O)C(C)Nc2cc(Cl)ccc2N2CCOCC2)C1 (stereo not drawn) [MMV020388]
[1]
  Giardia (16 uM) Mean % inhibition: 62%
[2]
  Crypto (10 uM) Mean % inhibition: X* (Mean or standard deviation are negative but not significantly different from the control to be a growth promoter)

## CO[C@@H](C(=O)N1Cc2[nH]nc(NC(=O)c3ccc(N4CCN(C)CC4)cc3)c2C1)c1ccccc1 [MMV676600]
[1]
  Giardia (16 uM) Mean % inhibition: 6%
[2]
  Crypto (10 uM) Mean % inhibition: 76%
